Assay results as given in ChEMBL document CHEMBL5532639, “Heterocyclic pyrimidine derivatives as promising antibacterial agents” (Eur J Med Chem, 2023).
≈ marks a conversion by molar mass, not a printed value.

Key:
[1] = tested on: Bacillus subtilis; assay: Antibacterial activity against Bacillus subtilis assessed as reduction in bacterial growth incubated for 24 hrs by CLSI protocol based Mueller-Hinton broth assay; type: functional
[2] = tested on: Shigella sonnei; assay: Antibacterial activity against Shigella sonnei assessed as inhibition of bacterial growth measured after 18 to 20 hrs by broth microdilution method; type: functional; conditions: time 18-20 hrs
[3] = tested on: Salmonella enterica; assay: Antimicrobial activity against Salmonella enterica assessed as inhibition of microbial growth incubated for 18 hrs by CLSI protocol based Mueller-Hinton broth assay; type: functional
[4] = tested on: Morganella morganii; assay: Antibacterial activity against Morganella morganii UM573 assessed as bacterial growth inhibition incubated for 20 to 22 hrs by CLSI based analysis; type: functional; conditions: time 20-22 hrs
[5] = tested on: Edwardsiella tarda; assay: Antimicrobial activity against Edwardsiella tarda assessed as inhibition of microbial growth incubated for 18 hrs by CLSI protocol based Mueller-Hinton broth assay; type: functional
[6] = tested on: Vibrio parahaemolyticus; assay: Antibacterial activity against Vibrio parahaemolyticus assessed as reduction in bacterial growth inhibition measured after 24 hrs by Mueller Hinton Agar dilution method; type: functional
[7] = tested on: Salmonella typhimurium; assay: Antimicrobial activity against Salmonella typhimurium DT104 assessed as inhibition of microbial growth incubated for 18 hrs by CLSI protocol based Mueller-Hinton broth assay; type: functional, Salmonella enterica subsp. enterica serovar Typhimurium; conditions: Salmonella enterica
[8] = tested on: Plesiomonas shigelloides; assay: Antibacterial activity against Plesiomonas shigelloides assessed as inhibition of bacterial growth measured after 18 to 20 hrs by broth microdilution method; type: functional; conditions: time 18-20 hrs
[9] = tested on: Salmonella enterica subsp. enterica serovar Paratyphi B; assay: Antibacterial activity against Salmonella paratyphi B CICC 21495 assessed as reduction in […]; type: functional; conditions: time lower 48 hrs
[10] = tested on: Escherichia coli; assay: Antimicrobial activity against Escherichia coli assessed as inhibition of microbial growth incubated for 18 hrs by CLSI protocol based Mueller-Hinton broth assay; type: functional
[11] = tested on: Shigella boydii; assay: Antibacterial activity against Shigella boydii assessed as inhibition of bacterial growth measured after 18 to 20 hrs by broth microdilution method; type: functional; conditions: time 18-20 hrs
[12] = tested on: Salmonella typhimurium; assay: Antibacterial activity against Salmonella typhimurium DT104 assessed as reduction in bacterial growth inhibition measured after 24 hrs by Mueller Hinton Agar dilution method; type: functional, Salmonella enterica subsp. enterica serovar Typhimurium; conditions: Salmonella enterica
[13] = tested on: Pseudomonas aeruginosa; assay: Antimicrobial activity against Pseudomonas aeruginosa assessed as inhibition of microbial growth incubated for 18 hrs by CLSI protocol based Mueller-Hinton broth assay; type: functional
[14] = tested on: Enterobacter sp.; assay: Antibacterial activity against Enterobacter sp. assessed as inhibition of bacterial growth; type: functional
[15] = tested on: Citrobacter freundii; assay: Antibacterial activity against multidrug-resistant Citrobacter freundii assessed as bacterial growth inhibition incubated for 20 to 22 hrs by CLSI based analysis; type: functional; conditions: time 20-22 hrs
[16] = tested on: Aeromonas hydrophila; assay: Antibacterial activity against Aeromonas hydrophila assessed as inhibition of microbial growth incubated for 24 hrs by CLSI protocol based Mueller-Hinton broth assay; type: functional
[17] = tested on: Vibrio cholerae; assay: Antibacterial activity against Vibrio cholerae assessed as inhibition of bacterial growth incubated for 24 hrs by broth microdilution method; type: functional
[18] = tested on: Vibrio cholerae; assay: Antibacterial activity against Vibrio cholerae measured after 18 to 20 hrs by broth microdilution method; type: functional; conditions: time 18-20 hrs
[19] = tested on: Shigella flexneri; assay: Antibacterial activity against Shigella flexneri assessed as inhibition of bacterial growth incubated for 24 hrs by broth microdilution method; type: functional
[20] = tested on: Salmonella paratyphi; assay: Antibacterial activity against Salmonella paratyphi A CICC 21501 incubated overnight by standard microtiter dilution method; type: functional, Salmonella enterica subsp. enterica serovar Paratyphi A; conditions: Salmonella enterica
[21] = tested on: Enterococcus faecalis; assay: Antimicrobial activity against Enterococcus faecalis assessed as inhibition of microbial growth incubated for 18 hrs by CLSI protocol based Mueller-Hinton broth assay; type: functional
[22] = tested on: Staphylococcus aureus; assay: Antimicrobial activity against Staphylococcus aureus assessed as inhibition of microbial growth incubated for 18 hrs by CLSI protocol based Mueller-Hinton broth assay; type: functional
[23] = tested on: Klebsiella pneumoniae; assay: Antimicrobial activity against Klebsiella pneumoniae assessed as inhibition of microbial growth incubated for 18 hrs by CLSI protocol based Mueller-Hinton broth assay; type: functional
[24] = tested on: Proteus vulgaris; assay: Antimicrobial activity against Proteus vulgaris assessed as microbial growth inhibition incubated for 24 hrs by broth microdilution method; type: functional
[25] = tested on: Vibrio cholerae; assay: Antibacterial activity against Vibrio cholerae assessed as reduction in bacterial growth measured after 18 to 20 hrs by broth microdilution method; type: functional; conditions: time 18-20 hrs
[26] = tested on: Morganella morganii; assay: Antibacterial activity against Morganella morganii UM869 incubated for 16 to 18 hrs by broth microdilution method; type: functional; conditions: time 16-18 hrs
[27] = tested on: Providencia rettgeri; assay: Antibacterial activity against Providencia rettgeri assessed as bacterial growth inhibition incubated for 18 hrs by CLSI protocol based Mueller-Hinton broth assay; type: functional
[28] = tested on: Staphylococcus epidermidis; assay: Antimicrobial activity against Staphylococcus epidermidis assessed as inhibition of microbial growth incubated for 18 hrs by CLSI protocol based Mueller-Hinton broth assay; type: functional
[29] = tested on: Bacillus subtilis; assay: Antibacterial activity against Bacillus subtilis assessed as bacterial growth inhibition by measuring zone of inhibition at 50 ug/ml by agar cup diffusion assay; type: functional; conditions: read-out: IZ
[30] = tested on: Escherichia coli; assay: Antibacterial activity against Escherichia coli assessed as bacterial growth inhibition by measuring zone of inhibition at 50 ug/ml by agar cup diffusion assay; type: functional; conditions: read-out: IZ
[31] = tested on: Salmonella typhimurium; assay: Antibacterial activity against Salmonella typhimurium DT104 assessed as bacterial growth inhibition by measuring zone of inhibition at 50 ug/ml by agar cup diffusion assay; type: functional, Salmonella enterica subsp. enterica serovar Typhimurium; conditions: Salmonella enterica, read-out: IZ
[32] = tested on: Streptococcus pyogenes; assay: Antibacterial activity against Streptococcus pyogenes assessed as inhibition of microbial growth by broth micro-dilution method; type: functional
[33] = tested on: Staphylococcus aureus; assay: Antibacterial activity against Staphylococcus aureus assessed as bacterial growth inhibition by measuring zone of inhibition at 50 ug/ml by agar cup diffusion assay; type: functional; conditions: read-out: IZ
[34] = tested on: Bacillus subtilis; assay: Antibacterial activity against Bacillus subtilis 6633 assessed as reduction in bacterial growth; type: functional
[35] = tested on: Escherichia coli; assay: microbe, parasite or virus in culture; conditions: ATCC 25922, 24 h
Description: Antibacterial activity against Escherichia coli ATCC 25922 assessed as reduction in bacterial growth measured after 24 hrs by Mueller-Hinton broth assay

[36] = tested on: Salmonella typhimurium; assay: Antibacterial activity against Salmonella typhimurium DT104 assessed as reduction in bacterial growth; type: functional, Salmonella enterica subsp. enterica serovar Typhimurium; conditions: Salmonella enterica
[37] = tested on: Bacillus subtilis; assay: Antibacterial activity against Bacillus subtilis ATCC 465 assessed as reduction in bacterial growth measured after 24 hrs by Mueller-Hinton broth assay; type: functional
[38] = tested on: Escherichia coli; assay: Antibacterial activity against Escherichia coli ATCC 25922 assessed as bacterial growth inhibition; type: functional
[39] = tested on: Staphylococcus aureus; assay: Antibacterial activity against Staphylococcus aureus ATCC 3750 assessed as reduction in bacterial growth; type: functional
[40] = tested on: Pseudomonas aeruginosa; assay: Antibacterial activity against Pseudomonas aeruginosa assessed as inhibition of microbial growth by broth micro-dilution method; type: functional
[41] = tested on: Escherichia coli; assay: Antibacterial activity against Escherichia coli assessed as inhibition of microbial growth by broth micro-dilution method; type: functional
[42] = tested on: Staphylococcus aureus; assay: microbe, parasite or virus in culture; conditions: ATCC 25923, 24 h
Description: Antibacterial activity against Staphylococcus aureus ATCC 25923 assessed as reduction in bacterial growth measured after 24 hrs by Mueller-Hinton broth assay

[43] = tested on: Staphylococcus aureus; assay: Antibacterial activity against Staphylococcus aureus assessed as inhibition of microbial growth by broth micro-dilution method; type: functional
[44] = tested on: Pseudomonas aeruginosa; assay: Antibacterial activity against Pseudomonas aeruginosa ATCC 85327 assessed as reduction in bacterial growth measured after 24 hrs by Mueller-Hinton broth assay; type: functional
[45] = tested on: Staphylococcus aureus; assay: Antibacterial activity against Staphylococcus aureus assessed as bacterial growth inhibition incubated for 24 hrs by CLSI protocol based Mueller-Hinton broth assay; type: functional
[46] = tested on: Enterococcus raffinosus; assay: Antibacterial activity against Enterococcus raffinosus assessed as bacterial growth inhibition incubated for 24 hrs by CLSI protocol based Mueller-Hinton broth assay; type: functional
[47] = tested on: Bacillus subtilis; assay: Antibacterial activity against Bacillus subtilis assessed as zone of inhibition at 50 microg/ml by cup plate analysis; type: functional; conditions: read-out: IZ
[48] = tested on: Bacillus pumilus; assay: Antibacterial activity against Bacillus pumilus assessed as zone of inhibition at 50 microg/ml by cup plate analysis; type: functional; conditions: read-out: IZ
[49] = tested on: Escherichia coli; assay: Antibacterial activity against Escherichia coli assessed as zone of inhibition at 50 microg/ml by cup plate analysis; type: functional; conditions: read-out: IZ
[50] = tested on: Proteus vulgaris; assay: Antibacterial activity against Proteus vulgaris assessed as zone of inhibition at 50 microg/ml by cup plate analysis; type: functional; conditions: read-out: IZ

Work on `Cc1ccc(-c2cc(-c3ccc(Cl)cc3)nc(/N=C3/C(=O)N(CNCN4CCOCC4)c4ccc(Br)cc43)n2)cc1` yielded an MIC [1] of 9.76 µg/mL (≈ 15.4 µM), an MIC [2] of 312 µg/mL (≈ 494 µM) and an MIC [3] of 9.76 µg/mL. The MIC [4] was 156 µg/mL (≈ 247 µM), the MIC [5] was 39.1 µg/mL and the MIC [6] was 78.1 µg/mL (≈ 124 µM). It also gave an MIC [7] of 19.5 µg/mL, an MIC [8] of 4.88 µg/mL (≈ 7.72 µM) and an MIC [9] of 39.1 µg/mL (≈ 61.8 µM). The MIC [10] was 2.44 µg/mL, the MIC [11] was 9.76 µg/mL (≈ 15.4 µM) and the MIC [12] was 156 µg/mL (≈ 247 µM). The MIC [13] was 312 µg/mL, the MIC [14] was 156 µg/mL (≈ 247 µM) and the MIC [15] was 39.1 µg/mL (≈ 61.8 µM). It also gave an MIC [16] of 312 µg/mL, an MIC [17] of 39.1 µg/mL (≈ 61.8 µM) and an MIC [18] of 0.3 µg/mL (≈ 0.475 µM). For the same molecule, the MIC [19] was 312 µg/mL (≈ 494 µM), the MIC [20] was 39.1 µg/mL (≈ 61.8 µM) and the MIC [21] was 1.22 µg/mL. It also gave an MIC [22] of 78.1 µg/mL, an MIC [23] of 312 µg/mL and an MIC [24] of 312 µg/mL (≈ 494 µM). For the same molecule, the MIC [25] was 9.76 µg/mL (≈ 15.4 µM), the MIC [26] was 156 µg/mL (≈ 247 µM) and the MIC [27] was 39.1 µg/mL (≈ 61.8 µM). The MIC [28] was 625 µg/mL.

In the case of `O=C(N[C@H](CO)[C@H](O)c1ccc([N+](=O)[O-])cc1)C(Cl)Cl` [CHLORAMPHENICOL], the zone of inhibition at 50 µg/mL [29] is reported as 20 mm, the zone of inhibition at 50 µg/mL [30] is reported as 18 mm and the zone of inhibition at 50 µg/mL [31] is reported as 24 mm. For the same molecule, the MIC [32] was 50 µg/mL, the zone of inhibition at 50 µg/mL [33] was 25 mm and the MIC [34] was 6 µg/mL (≈ 18.6 µM). The MIC [35] was 4 µg/mL (≈ 12.4 µM), the MIC [36] was 6 µg/mL (≈ 18.6 µM) and the MIC [37] was 4 µg/mL (≈ 12.4 µM). It also gave an MIC [38] of 4 µg/mL (≈ 12.4 µM), an MIC [39] of 5 µg/mL (≈ 15.5 µM) and an MIC [40] of 50 µg/mL. The MIC [41] was 50 µg/mL, the MIC [42] was 8 µg/mL (≈ 24.8 µM) and the MIC [43] was 50 µg/mL. It also gave an MIC [44] of 256 µg/mL (≈ 792 µM).

With `Nc1n[nH]c2nc(-c3ccccc3)nc(-c3ccc(Br)cc3)c12` the MIC [45] was 3.8 µg/mL (≈ 10.4 µM) and the MIC [46] was 12.3 µg/mL (≈ 33.6 µM).

In the case of `Nc1nc(-c2ccsc2)cc(-c2ccc(Cl)cc2Cl)n1`, the zone of inhibition at 50 µg/mL [47] is reported as 16 mm, the zone of inhibition at 50 µg/mL [48] is reported as 13 mm and the zone of inhibition at 50 µg/mL [49] is reported as 12 mm. The zone of inhibition at 50 µg/mL [50] was 15 mm.
